According to US7138140B2, “Suplatast tosilate crystals” (Taiho Pharmaceutical Co., Ltd., priority 2001, dated 2006):
Blank lines part the entries; values can stand above or below the molecule they belong to.

Legend:
Type in all cases: physicochemical
[1] = Measurement of an optically active substance ratio (chiral stationary phase column); details: p-toluenesulfonate; for Optically active substance ratio ((+)/(−)): crystals, Chiralcel OD-H column; for Optically active substance ratio of the suplatast tosilate in the mother liquor: mother liquor after crystallization
Procedure: [Test 1] Measurement of an Optically Active Substance Ratio
The optically active substance ratio of each of the suplatast tosilate crystals of the present invention obtained in Examples 1 to 3, and the suplatast tosilate first crystals obtained in Comparative Examples 1 to 3 was measured using a chiral stationary phase column (“Chiralcel OD-H”, 4.6 mm×25 cm, product of Daicel Chemical Industries) with n-hexane ethanol-trifluoroacetic acid-diethylamine (750:250:5:1) as a mobile phase.
The optically active substance ratio of the suplatast tosilate in the mother liquor in each of Examples and Comparative Examples was measured as described above. The ratio in Example 1 to 6 was from 0.99 to 1.01, while it was 0.57 in Comparative Example 1, 0.87 in Comparative Example 2, and 0.42 in Comparative Example 3. Accordingly, the invention crystal can be recovered again from the mother liquor, while the first crystal cannot be recovered from the mother liquor. Such a phenomenon owes to optical enrichment phenomenon typically observed upon formation of the first crystal.

[2] = Heat Stability Test (60° C., 3 months, glass air-tight container); details: for Decomposition product (wt. %) formed, Lot 1: Lot 1, p-toluenesulfonate
Procedure: [Test 4] Heat Stability Test
The invention crystals of suplatast tosilate obtained in accordance with the process of Example 1 and commercially available suplatast tosilate first crystals, each 3.6 g, were stored at 60° C. for 3 months in a glass air-tight container and the formation amount and powder X-ray diffraction of a decomposition product ((±)-4-(3-ethoxy-2-hydroxypropoxy) aniline derivative) were measured to investigate heat storage stability.

[3] = Hygroscopicity Test 1 (storage at 25° C., 75% RH, time-dependent weight change); details: relative humidity 75%, FIG. 4
Procedure: FIG. 4 is a graph illustrating a water content increase, at 25° C. and relative humidity of 75%, of the invention crystal of suplatast tosilate (Example 1) suplatast tosilate first crystal (commercially available product) and suplatast tosilate second crystal (Comparative Example 4).
[Test 2] Hygroscopicity Test 1
In a dessicator (adjusted to 75% RH) having a saturated aqueous solution of sodium chloride charged therein, 1.0 g of each of the suplatast tosilate crystals of the invention obtained in Example 1, commercially available suplatast tosilate first crystals and the suplatast tosilate second crystals obtained in Comparative Example 4 were stored at 25° C. and a time-dependent weight change was measured.

[4] = Hygroscopicity Test 2 (storage at 40° C., relative humidity 50%, 14 days); details: for Change in appearance on storage: p-toluenesulfonate
Procedure: [Test 3] Hygroscopicity Test 2
Each of the suplatast tosilate crystals of the invention obtained in Example 1, and the second crystals obtained in accordance with the process of Comparative Example 4 (each, 0.5 g) were stored at 40° C. and relative humidity of 50% for 14 days, followed by observation of their appearance, powder X-ray diffraction and differential scanning calorimetry (DSC) in order to investigate storage stability.

[5] = 2 months, Lot 2, p-toluenesulfonate
[6] = 2 months, Lot 3, p-toluenesulfonate
[7] = 3 months, Lot 2, p-toluenesulfonate
[8] = 3 months, Lot 3, p-toluenesulfonate

- Optically active substance ratio ((+)/(−)) [1]: 1.09
- Optically active substance ratio of the suplatast tosilate in the mother liquor [1]: 0.57
Structure (SMILES): CCOCC(O)COc1ccc(NC(=O)CC[S+](C)C)cc1.Cc1ccc(S(=O)(=O)[O-])cc1 (racemic) [Comparative Example 1, (±)-[2-[4-(3-ethoxy-2-hydroxypropoxy)phenylcarbamoyl]ethyl] dimethylsulfonium p-toluenesulfonate]

- Optically active substance ratio ((+)/(−)) [1]: 0.97
- Optically active substance ratio of the suplatast tosilate in the mother liquor [1]: 0.87
Structure (SMILES): CCOCC(O)COc1ccc(NC(=O)CC[S+](C)C)cc1.Cc1ccc(S(=O)(=O)[O-])cc1 (racemic) [Comparative Example 2, (±)-[2-[4-(3-ethoxy-2-hydroxypropoxy)phenylcarbamoyl]ethyl] dimethylsulfonium p-toluenesulfonate]

- Optically active substance ratio ((+)/(−)) [1]: 0.94
- Optically active substance ratio of the suplatast tosilate in the mother liquor [1]: 0.42
Structure (SMILES): CCOCC(O)COc1ccc(NC(=O)CC[S+](C)C)cc1.Cc1ccc(S(=O)(=O)[O-])cc1 (racemic) [Comparative Example 3, (±)-[2-[4-(3-ethoxy-2-hydroxypropoxy)phenylcarbamoyl]ethyl] dimethylsulfonium p-toluenesulfonate]

- Optically active substance ratio ((+)/(−)) [1]: around 1.00
Structure (SMILES): CCOCC(O)COc1ccc(NC(=O)CC[S+](C)C)cc1.Cc1ccc(S(=O)(=O)[O-])cc1 (racemic) [Example 6, (±)-[2-[4-(3-ethoxy-2-hydroxypropoxy)phenylcarbamoyl]ethyl] dimethylsulfonium p-toluenesulfonate]

- Change in appearance on storage [4]: almost free from a change in appearance
- Decomposition product (wt. %) formed, Lot 1 ([2]; 1 month): 0.0 wt. %
- Decomposition product (wt. %) formed, Lot 2 ([2]; 1 month, Lot 2): 0.0 wt. %
- Decomposition product (wt. %) formed, Lot 3 ([2]; 1 month, Lot 3): 0.0 wt. %
- Decomposition product (wt. %) formed, Lot 1 ([2]; 2 months): 0.0 wt. %
- Decomposition product (wt. %) formed, Lot 2 [2, 5]: 0.0 wt. %
- Decomposition product (wt. %) formed, Lot 3 [2, 6]: 0.0 wt. %
- Decomposition product after 3 months (in words) ([2]; 3 months): no decomposition product appeared
- Decomposition product (wt. %) formed, Lot 1 ([2]; 3 months): 0.0 wt. %
- Decomposition product (wt. %) formed, Lot 2 [2, 7]: 0.0 wt. %
- Decomposition product (wt. %) formed, Lot 3 [2, 8]: 0.0 wt. %
Structure (SMILES): CCOCC(O)COc1ccc(NC(=O)CC[S+](C)C)cc1.Cc1ccc(S(=O)(=O)[O-])cc1 (racemic) [Invention crystal, (±)-[2-[4-(3-ethoxy-2-hydroxypropoxy)phenylcarbamoyl]ethyl] dimethylsulfonium p-toluenesulfonate]
- Hygroscopicity (water content increase) [3]: lower hygroscopicity than each of the first crystal and second crystal
- Change in powder X-ray diffraction peaks and DSC on storage [4]: almost free from a change in powder X-ray diffraction peaks and in DSC

Continued, molecule first:

Structure (SMILES): CCOCC(O)COc1ccc(NC(=O)CC[S+](C)C)cc1.Cc1ccc(S(=O)(=O)[O-])cc1 (racemic) [Example 1, (±)-[2-[4-(3-ethoxy-2-hydroxypropoxy)phenylcarbamoyl]ethyl] dimethylsulfonium p-toluenesulfonate]
- Optically active substance ratio ((+)/(−)) [1]: 1.00

Structure (SMILES): CCOCC(O)COc1ccc(NC(=O)CC[S+](C)C)cc1.Cc1ccc(S(=O)(=O)[O-])cc1 (racemic) [Example 2, (±)-[2-[4-(3-ethoxy-2-hydroxypropoxy)phenylcarbamoyl]ethyl] dimethylsulfonium p-toluenesulfonate]
- Optically active substance ratio ((+)/(−)) [1]: 1.00

Structure (SMILES): CCOCC(O)COc1ccc(NC(=O)CC[S+](C)C)cc1.Cc1ccc(S(=O)(=O)[O-])cc1 (racemic) [Example 3, (±)-[2-[4-(3-ethoxy-2-hydroxypropoxy)phenylcarbamoyl]ethyl] dimethylsulfonium p-toluenesulfonate]
- Optically active substance ratio ((+)/(−)) [1]: 1.00

Structure (SMILES): CCOCC(O)COc1ccc(NC(=O)CC[S+](C)C)cc1.Cc1ccc(S(=O)(=O)[O-])cc1 (racemic) [First crystal, (±)-[2-[4-(3-ethoxy-2-hydroxypropoxy)phenylcarbamoyl]ethyl] dimethylsulfonium p-toluenesulfonate]
- Decomposition product (wt. %) formed, Lot 1 ([2]; 1 month): 0.1 wt. %
- Decomposition product (wt. %) formed, Lot 2 ([2]; 1 month, Lot 2): 0.0 wt. %
- Decomposition product (wt. %) formed, Lot 3 ([2]; 1 month, Lot 3): 0.0 wt. %
- Decomposition product (wt. %) formed, Lot 1 ([2]; 2 months): 1.1 wt. %
- Decomposition product (wt. %) formed, Lot 2 [2, 5]: 0.7 wt. %
- Decomposition product (wt. %) formed, Lot 3 [2, 6]: 0.5 wt. %
- Decomposition product formed after 3-month storage (over the lots) ([2]; 3 months): about 1.7 wt. %
- Decomposition product (wt. %) formed, Lot 1 ([2]; 3 months): 2.1 wt. %
- Decomposition product (wt. %) formed, Lot 2 [2, 7]: 1.5 wt. %
- Decomposition product (wt. %) formed, Lot 3 [2, 8]: 1.4 wt. %

Structure (SMILES): CCOCC(O)COc1ccc(NC(=O)CC[S+](C)C)cc1.Cc1ccc(S(=O)(=O)[O-])cc1 (racemic) [second crystal, (±)-[2-[4-(3-ethoxy-2-hydroxypropoxy)phenylcarbamoyl]ethyl] dimethylsulfonium p-toluenesulfonate]
- Change in appearance on storage [4]: showed deliquescence after storage for one week
